Assay results from PubChem BioAssay (NCI).
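Test compounds were applied to cells in 96-well plates for 48 hours at 5 doses. GI50 marks 50% less growth. The concentration for full growth arrest is given as TGI.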

Legend:
Test in all cases: DTP human tumour cell line panel, 48 h
BT-549 breast = system: BT-549 breast
CAKI-1 renal = system: CAKI-1 renal
COLO 205 colon = system: COLO 205 colon
EKVX NSCLC = system: EKVX NSCLC
K-562 leukemia = system: K-562 leukemia
KM12 colon = system: KM12 colon
MDA-MB-435 = system: MDA-MB-435
NCI-H522 lung = system: NCI-H522 lung
NCI/ADR-RES ovarian = system: NCI/ADR-RES ovarian
SW-620 colon = system: SW-620 colon
T-47D breast = system: T-47D breast
TK-10 renal = system: TK-10 renal
UACC-257 melanoma = system: UACC-257 melanoma

Row | SMILES | TGI (BT-549 breast) [µM] | TGI (CAKI-1 renal) [µM] | TGI (COLO 205 colon) [µM] | TGI (EKVX NSCLC) [µM] | TGI (K-562 leukemia) [µM] | TGI (KM12 colon) [µM] | TGI (MDA-MB-435) [µM] | TGI (NCI-H522 lung) [µM] | TGI (NCI/ADR-RES ovarian) [µM] | TGI (SW-620 colon) [µM] | TGI (T-47D breast) [µM] | TGI (TK-10 renal) [µM] | TGI (UACC-257 melanoma) [µM] | GI50 (CAKI-1 renal) [µM] | GI50 (COLO 205 colon) [µM] | GI50 (EKVX NSCLC) [µM] | GI50 (KM12 colon) [µM] | GI50 (SW-620 colon) [µM]
1 | COc1ccccc1CNC(=O)[C@H](Cc1ccc(O)cn1)NC(C)=O | > 100 | > 100 | > 100 | > 100 | > 100 | > 100 | > 100 | > 100 | > 100 | > 100 | > 100 | > 100 | > 100 | – | – | – | – | –
2 | C=CCn1c(-c2ccc(-c3cs/c(=N\N=O)n3CC=C)cc2)cs/c1=N\N=O | > 100 | > 100 | > 100 | > 100 | > 100 | > 100 | > 100 | > 100 | > 100 | > 100 | > 100 | > 100 | > 100 | – | – | – | – | –
3 | C[C@]12CC[C@H](O)CC1=CC[C@@H]1C2CC[C@]2(C)Nc3c(cnn3-c3ccc(F)cc3)CC12 (some centres not stated) | 38.9 | > 100 | – | > 100 | > 100 | > 100 | > 100 | > 100 | > 100 | > 100 | > 100 | > 100 | > 100 | – | – | – | – | –
4 | COc1ccc(CCNC(=O)[C@H]2CCCC[C@@H]2CCO)cc1OC | > 100 | > 100 | > 100 | > 100 | > 100 | > 100 | > 100 | > 100 | > 100 | > 100 | > 100 | > 100 | > 100 | – | – | – | – | –
5 | O=c1oc2ccc([N+](=O)[O-])cc2c(Nc2ccc3c(c2)S(=O)(=O)c2ccccc2O3)c1[N+](=O)[O-] | > 100 | > 100 | > 100 | > 100 | > 100 | > 100 | > 100 | > 100 | > 100 | > 100 | > 100 | > 100 | > 100 | – | – | – | – | –
6 | N#Cc1nc(COCCOCc2ccc(F)cc2)oc1N | > 100 | > 100 | > 100 | > 100 | > 100 | > 100 | > 100 | > 100 | > 100 | > 100 | > 100 | > 100 | > 100 | – | – | – | – | –
7 | C/C(=N\Nc1nc2ccccc2s1)c1cc(C)ncn1 | > 46.3 | 6.63 | 4.71 | 17.1 | – | 14.2 | > 54.1 | 5.04 | 4.91 | > 53.2 | > 100 | > 100 | > 27.2 | – | – | – | – | –
8 | O=C(/C=C(\O)c1ccccc1)c1cc(-c2ccccc2)n(-c2ccccc2)n1 | 26.1 | 54.5 | 37.4 | > 100 | > 100 | > 100 | > 100 | 42.4 | > 100 | > 100 | 37.9 | > 100 | > 100 | – | – | – | – | –
9 | Nc1nc(N)c2nc(CNc3ccc(C(=O)NC(CCCCNC(=O)c4ccccc4C(=O)O)C(=O)O)cc3)cnc2n1 (configuration not stated) | > 100 | > 100 | > 100 | > 100 | > 100 | > 100 | > 31.6 | > 100 | > 100 | > 100 | > 100 | > 100 | > 100 | 0.0237 | 0.537 | 0.036 | 0.00485 | 0.00342
10 | CCOC(=O)c1c(N2CCCC2)[nH]c(=O)c(C(c2cccs2)c2c(O)c(C(=O)OCC)c(N3CCCC3)[nH]c2=O)c1O | > 100 | > 100 | > 100 | > 100 | > 100 | > 100 | > 100 | > 100 | > 100 | > 100 | > 100 | > 100 | > 100 | – | – | – | – | –
11 | O=C1c2ccccc2C(=O)c2oc(Br)cc21 | 3.11 | 3.43 | 3.47 | 4.07 | 4.77 | 3.2 | 0.311 | 3.04 | 5.44 | 1.09 | 3.6 | 6.15 | 0.784 | – | – | – | – | –
12 | NC(=O)c1cccc([C@@H]2O[C@H](CO)[C@@H](O)[C@H]2O)c1 | 43.4 | > 69.1 | 48.7 | > 100 | 41.3 | 15.9 | > 90.3 | 10.2 | 16.3 | 42.8 | > 66.6 | 99.1 | > 100 | – | – | – | – | –
13 | CCCC[C@H]1CCN2C[C@@H](O)[C@@H](O)[C@H]2[C@@H]1O | > 100 | > 100 | > 100 | > 100 | > 100 | > 100 | > 100 | > 100 | > 100 | > 100 | > 100 | > 100 | > 100 | – | – | – | – | –
14 | Cc1c(C)c(S(=O)(=O)N(CCCCCON)OCCCN)c(C)c2c1OC(C)(C)CC2 | 29.3 | 16 | 10.3 | 24.7 | > 40.3 | 27.3 | 24.8 | 31.6 | 31 | 33.2 | 16.8 | 27.5 | 29.5 | – | – | – | – | –
15 | S=C1N=C(Cl)/C(=C\c2ccccc2)N1 | > 100 | > 100 | > 100 | > 100 | > 100 | > 100 | > 100 | > 100 | > 100 | > 100 | > 100 | > 100 | > 100 | – | – | – | – | –
16 | CCN(CC)CCO/N=C1/C=C2CCC3C(CC[C@@]4(C)C3CC[C@]4(C)O)[C@@]2(C)CC1 (some centres not stated) | 39.1 | 20.1 | 14.6 | 42.9 | 18.9 | 18.9 | 4.77 | 6.07 | 7.48 | – | 68 | 45.1 | 18.2 | – | – | – | – | –
17 | CCOP(=O)(OCC)/C(C#N)=C/c1ccnc2ccccc12 | 50.9 | 80.3 | 38.1 | > 100 | – | 91.3 | 31.3 | 57.8 | > 100 | > 100 | > 100 | > 100 | > 100 | – | – | – | – | –
18 | CC(C)(C)C1CCC2c3c([nH]c4ccccc34)C3C(=O)N(c4ccc5c(c4)C(=O)c4ccccc4C5=O)C(=O)C3C2C1 (configuration not stated) | > 100 | > 100 | > 100 | > 100 | > 100 | > 100 | > 100 | > 100 | > 100 | > 100 | > 100 | > 100 | > 100 | – | – | – | – | –
19 | COc1ccc(NC2CC(C)N(C(=O)c3ccccc3)O2)cc1 (configuration not stated) | > 10 | > 10 | > 10 | > 10 | > 10 | – | > 10 | > 10 | > 10 | > 10 | > 10 | > 10 | > 10 | – | – | – | – | –
20 | Cc1cc2c(cc1Cl)SC(NNc1ccc([N+](=O)[O-])cc1)=NS2(=O)=O | > 10 | > 10 | > 10 | > 10 | > 10 | > 10 | > 10 | > 10 | > 10 | > 10 | > 10 | > 10 | > 10 | – | – | – | – | –
21 | CCOC(=O)/C(C#N)=C/c1ccc2c(c1)CC1(C2)Cc2cc(CC)c(C(C)O)cc2C1 (configuration not stated) | 23.4 | > 100 | 66.2 | > 100 | > 52.5 | 38.8 | 4.83 | > 100 | 55.9 | 22.5 | > 100 | 84.2 | 45.6 | – | – | – | – | –
22 | CC1(C)[C@H]2Cc3cc(-c4cc5c(cn4)[C@@H]4C[C@H]([C@@H]5[C@@H]5c6cc(-c7cc8c(cn7)[C@@H]7C[C@H](C8)C7(C)C)ncc6[C@@H]6C[C@H]5C6(C)C)C4(C)C)ncc3[C@@H]1C2 | > 100 | > 100 | > 100 | > 100 | > 100 | > 100 | > 100 | > 100 | > 100 | > 100 | > 100 | – | > 100 | – | – | – | – | –
23 | CN(C)CC1CN=C(NC(=O)Nc2ccccc2)O1 (configuration not stated) | > 100 | > 100 | > 100 | > 100 | > 100 | > 100 | > 100 | > 100 | > 100 | > 100 | > 100 | > 100 | > 100 | – | – | – | – | –
24 | COC(=O)c1c(-c2ccccc2)c2sc3ccccc3n2c1N | > 100 | > 100 | 97 | > 100 | > 100 | 88.8 | > 100 | 73.2 | > 100 | – | 87.5 | > 100 | > 100 | – | – | – | – | –
25 | CC1OC(OC2C(Oc3cc(O)c4c(c3)O[C@H](c3ccc(O)cc3)CC4=O)OC(CO)C(O)C2O)C(O)C(O)C1O (some centres not stated) | > 100 | > 100 | > 100 | > 100 | – | > 100 | > 100 | > 100 | > 100 | > 100 | > 100 | > 100 | > 100 | – | – | – | – | –
